Assay results reported in patent publication US10787450B2 (BRISTOL-MYERS SQUIBB COMPANY, priority 2016, dated 2020).
pIC50: −log10 of the molar value. Counter-ions that a name gives are not always drawn.

Each molecule was assayed against ROCK2 (Homo sapiens (Human), UniProt O75116) (assay: ROCK2 kinase inhibition assay (FITC peptide substrate, LABCHIP 3000 Reader)). Conditions: 5 μM ATP, 1.5 μM peptide substrate.
Type: biochemical
Procedure, shortened: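 IC50 derived by curve fitting of dose-response inhibition, read as separation of phosphorylated from unphosphorylated FITC peptide (1.5 μM) after EDTA stop. Buffer: HEPES pH 7.5, MgCl2, Brij-35, DTT; ATP 5 μM; final DMSO <2%; reaction initiated by Rho kinase addition.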

Chain of ROCK2 (O75116 whole entry, species assumed): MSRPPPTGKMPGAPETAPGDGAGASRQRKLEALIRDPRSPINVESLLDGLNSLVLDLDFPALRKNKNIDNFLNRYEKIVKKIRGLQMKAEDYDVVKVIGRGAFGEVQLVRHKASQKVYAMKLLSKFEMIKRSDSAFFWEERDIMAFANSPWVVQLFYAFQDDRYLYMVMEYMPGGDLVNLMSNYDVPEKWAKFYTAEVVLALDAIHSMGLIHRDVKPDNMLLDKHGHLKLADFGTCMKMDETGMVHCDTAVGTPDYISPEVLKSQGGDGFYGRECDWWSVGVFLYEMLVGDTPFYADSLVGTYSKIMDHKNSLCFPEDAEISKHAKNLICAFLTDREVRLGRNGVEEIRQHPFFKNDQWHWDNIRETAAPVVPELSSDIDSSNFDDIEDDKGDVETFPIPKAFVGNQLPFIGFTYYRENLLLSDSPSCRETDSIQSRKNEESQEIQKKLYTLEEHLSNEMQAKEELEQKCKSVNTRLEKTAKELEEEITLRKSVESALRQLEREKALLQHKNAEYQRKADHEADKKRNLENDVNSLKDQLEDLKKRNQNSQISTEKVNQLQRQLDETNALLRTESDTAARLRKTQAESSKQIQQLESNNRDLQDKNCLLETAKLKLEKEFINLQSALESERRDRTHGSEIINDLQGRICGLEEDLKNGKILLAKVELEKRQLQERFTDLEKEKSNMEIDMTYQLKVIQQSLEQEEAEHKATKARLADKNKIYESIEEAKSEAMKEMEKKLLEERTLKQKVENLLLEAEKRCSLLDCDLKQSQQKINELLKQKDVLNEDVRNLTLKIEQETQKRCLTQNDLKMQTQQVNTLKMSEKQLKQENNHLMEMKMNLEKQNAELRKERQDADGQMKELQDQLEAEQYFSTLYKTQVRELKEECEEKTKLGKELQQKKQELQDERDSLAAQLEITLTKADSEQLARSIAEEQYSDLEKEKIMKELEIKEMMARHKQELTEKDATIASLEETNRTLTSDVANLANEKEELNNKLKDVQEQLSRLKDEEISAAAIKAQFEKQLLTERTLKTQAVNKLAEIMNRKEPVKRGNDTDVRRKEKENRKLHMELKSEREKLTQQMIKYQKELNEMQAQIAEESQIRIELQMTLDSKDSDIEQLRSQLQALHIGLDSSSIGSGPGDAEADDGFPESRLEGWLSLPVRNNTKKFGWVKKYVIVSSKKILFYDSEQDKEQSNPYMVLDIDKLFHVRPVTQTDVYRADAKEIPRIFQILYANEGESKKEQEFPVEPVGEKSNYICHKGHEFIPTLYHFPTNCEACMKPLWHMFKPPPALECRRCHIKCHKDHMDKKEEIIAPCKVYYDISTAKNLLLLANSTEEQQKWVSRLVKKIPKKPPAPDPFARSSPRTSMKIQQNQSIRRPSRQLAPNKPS

`COc1cccc(CN2C(=O)N(c3ncc(-c4cn[nH]c4)c(OC)n3)CC23CCN(C(=O)CN(C)C)CC3)c1` [Example 210, 8-(2-(dimethylamino)acetyl)-3-(4-methoxy-5-(1H-pyrazol-4-yl)pyrimidin-2-yl)-1-(3-methoxybenzyl)-1,3,8-triazaspiro[4.5]decan-2-one] and `COc1cccc(CN2C(=O)N(c3ccc(-c4cn[nH]c4)c(OC)n3)CC23CCN(C(=O)C(C)O)CC3)c1` (stereo not drawn) [Example 221, 8-(2-hydroxypropanoyl)-3-(6-methoxy-5-(1H-pyrazol-4-yl)pyridin-2-yl)-1-(3-methoxybenzyl)-1,3,8-triazaspiro[4.5]decan-2-one] cannot be ordered by pIC50: over 8.52 for the first, over 8.52 for the second.

Compared with `N#Cc1cccc(CN2C(=O)N(c3ccc(-c4cn[nH]c4)cc3)CC23CCOCC3)c1` [Example 14, 3-((3-(4-(1H-pyrazol-4-yl)phenyl)-2-oxo-8-oxa-1,3-diazaspiro[4.5]decan-1-yl)methyl)benzonitrile], `O=C(NCC(F)(F)F)c1cccc(CN2C(=O)N(c3ccc(-c4cn[nH]c4)cc3)CC23CCOCC3)c1` [Example 38, 3-((3-(4-(1H-pyrazol-4-yl)phenyl)-2-oxo-8-oxa-1,3-diazaspiro[4.5]decan-1-yl)methyl)-N-(2,2,2-trifluoroethyl)benzamide] is higher in pIC50: 6.60 to 7.52 for the first, over 8.52 for the second. The second is the more potent here.

`CC(=O)N1CCC2(CC1)CN(c1ccc(-c3cn[nH]c3)cc1)C(=O)N2Cc1ccc(F)cc1C` [Example 80, 3-(4-(1H-pyrazol-4-yl)phenyl)-8-acetyl-1-(4-fluoro-2-methylbenzyl)-1,3,8-triazaspiro[4.5]decan-2-one] and `CC(=O)N1CCC2(CC1)CN(c1ccc(-c3cn[nH]c3)cc1)C(=O)N2Cc1cc(F)ccc1C` [Example 83, 3-(4-(1H-pyrazol-4-yl)phenyl)-8-acetyl-1-(5-fluoro-2-methylbenzyl)-1,3,8-triazaspiro[4.5]decan-2-one] fall in the same range of pIC50: 7.52 to 8.52 for the first, 7.52 to 8.52 for the second.

First: COc1cccc(NC2C(=O)N(c3ccc(-c4cn[nH]c4)cc3)CC23CN(C(=O)OC(C)(C)C)C3)c1 (stereo not drawn) [Example 240, tert-butyl 6-(4-(1H-pyrazol-4-yl)phenyl)-8-((3-methoxyphenyl)amino)-7-oxo-2,6-diazaspiro[3.4]octane-2-carboxylate]
Second: COc1cccc(NC2C(=O)N(c3ccc(-c4cn[nH]c4)cc3)CC23CCN(C(C)=O)CC3)c1 (stereo not drawn) [Example 249, -(4-(1H-pyrazol-4-yl)phenyl)-8-acetyl-4-((3-methoxy-phenyl)amino)-2,8-diazaspiro [4.5]decan-3-one]
The pIC50 of the first is higher: 6.60 to 7.52 for the first, 5.52 to 6.60 for the second. The first is the more potent here.

`O=C1N(c2ccc(-c3cn[nH]c3)cc2)CC2(CCOCC2)N1CC1CCCCC1` [Example 30, 3-(4-(1H-pyrazol-4-yl)phenyl)-1-(cyclohexylmethyl)-8-oxa-1,3-diazaspiro[4.5]decan-2-one] and `COc1cc(F)ccc1CN1C(=O)N(c2ccc(-c3cn[nH]c3)cc2)CC12CCOCC2` [Example 28, 3-(4-(1H-pyrazol-4-yl)phenyl)-1-(4-fluoro-2-methoxybenzyl)-8-oxa-1,3-diazaspiro[4.5]decan-2-one] fall in the same range of pIC50: 6.60 to 7.52 for the first, 6.60 to 7.52 for the second.

First: COc1cccc(NC2C(=O)N(c3ccc(-c4cn[nH]c4)cn3)CC23CCN(C(=O)CC(C)c2ccccc2)CC3)c1 (stereo not drawn) [Example 254, 2-(5-(1H-pyrazol-4-yl)pyridin-2-yl)-4-((3-methoxy-phenyl)amino)-8-(3-phenyl-butanoyl)-2,8-diazaspiro [4.5]decan-3-one]
Second: COc1cccc(CN2C(=O)N(c3ccc(-c4cn[nH]c4)cn3)CC23CCN(C(C)=O)CC3)c1 [Example 50, 3-(5-(1H-pyrazol-4-yl)pyridin-2-yl)-8-acetyl-1-(3-methoxybenzyl)-1,3,8-triazaspiro[4.5]decan-2-one]
The pIC50 of the first is lower: 5.52 to 6.60 for the first, 7.52 to 8.52 for the second. The second is the more potent here.

First: COc1cc(F)cc(CN2C(=O)N(c3ccc(-c4cn[nH]c4)cc3)CC23CCN(C2COC2)CC3)c1 [Example 236, 3-(4-(1H-pyrazol-4-yl)phenyl)-1-(3-fluoro-5-methoxy-benzyl)-8-(oxetan-3-yl)-1,3,8-triazaspiro [4.5]decan-2-one]
Second: O=C1N(c2ccc(-c3cn[nH]c3)cc2)CC2(CCNCC2)N1Cc1cc(F)cc(F)c1 [Example 68]
The pIC50 of the first is higher: over 8.52 for the first, 7.52 to 8.52 for the second.

`CCc1nc(N2CC3(CCNCC3)N(Cc3cccc(OC)c3)C2=O)ccc1-c1cn[nH]c1` [Example 75, 3-(6-ethyl-5-(1H-pyrazol-4-yl)pyridin-2-yl)-1-(3-methoxybenzyl)-1,3,8-triazaspiro[4.5]decan-2-one, TFA] and `CCc1nc(N2CC3(CCN(C(=O)OC)CC3)N(Cc3cccc(OC)c3)C2=O)ccc1-c1cn[nH]c1` [Example 105, methyl 3-(6-ethyl-5-(1H-pyrazol-4-yl)pyridin-2-yl)-1-(3-methoxybenzyl)-2-oxo-1,3,8-triazaspiro[4.5]decane-8-carboxylate] cannot be ordered by pIC50: over 8.52 for the first, over 8.52 for the second.

`COc1cccc(CN2C(=O)N(c3ccc(-c4cn[nH]c4)cn3)CC23CCN(C(=O)C(C)(C)O)CC3)c1` [Example 199, 3-(5-(1H-pyrazol-4-yl)pyridin-2-yl)-8-(2-hydroxy-2-methylpropanoyl)-1-(3-methoxybenzyl)-1,3,8-triazaspiro[4.5]decan-2-one] and `COCC(=O)N1CCC2(CC1)CN(c1ccc(-c3cn[nH]c3)cn1)C(=O)N2Cc1cccc(OC)c1` [Example 197, 3-(5-(1H-pyrazol-4-yl)pyridin-2-yl)-8-(2-methoxyacetyl)-1-(3-methoxybenzyl)-1,3,8-triazaspiro[4.5]decan-2-one] fall in the same range of pIC50: 7.52 to 8.52 for the first, 7.52 to 8.52 for the second.

Compared with `COc1nc(N2CC3(CCN(C(=O)OC(C)(C)C)CC3)N(Cc3cccc(F)c3C)C2=O)ccc1-c1cn[nH]c1` [Example 55, tert-butyl 1-(3-fluoro-2-methylbenzyl)-3-(6-methoxy-5-(1H-pyrazol-4-yl)pyridin-2-yl)-2-oxo-1,3,8-triazaspiro[4.5]decane-8-carboxylate], `CCOC(=O)N1CCC2(CC1)CN(c1ccc(-c3cn[nH]c3)cn1)C(=O)N2Cc1cccc(OC)c1` [Example 110, ethyl 3-(5-(1H-pyrazol-4-yl)pyridin-2-yl)-1-(3-methoxybenzyl)-2-oxo-1,3,8-triazaspiro[4.5]decane-8-carboxylate] is lower in pIC50: 7.52 to 8.52 for the first, 6.60 to 7.52 for the second. The first is the more potent here.

`COc1cccc(CN2C(=O)N(c3ccc(-c4cn[nH]c4)cc3)CC23CCN(C(=O)OCC(C)C)CC3)c1` [Example 95, isobutyl 3-(4-(1H-pyrazol-4-yl)phenyl)-1-(3-methoxybenzyl)-2-oxo-1,3,8-triazaspiro[4.5]decane-8-carboxylate] and `COCCOC(=O)N1CCC2(CC1)CN(c1ccc(-c3cn[nH]c3)cc1)C(=O)N2Cc1cccc(OC)c1` [Example 98, 2-methoxyethyl 3-(4-(1H-pyrazol-4-yl)phenyl)-1-(3-methoxybenzyl)-2-oxo-1,3,8-triazaspiro[4.5]decane-8-carboxylate] cannot be ordered by pIC50: over 8.52 for the first, over 8.52 for the second.

First: COc1cccc(CN2C(=O)N(c3ccc(-c4cn[nH]c4)cc3)CC23CCN(C(=O)C2CCC(F)(F)C2)CC3)c1 (stereo not drawn) [Example 175, 3-(4-(1H-pyrazol-4-yl)phenyl)-8-(3,3-difluorocyclopentane-carbonyl)-1-(3-methoxybenzyl)-1,3,8-triazaspiro[4.5]decan-2-one]
Second: O=C1N(c2ccc(-c3cn[nH]c3)cc2)CC2(CC2)N1Cc1cccc(OCC2CC2)c1 [Example 7, 6-(4-(1H-pyrazol-4-yl)phenyl)-4-(3-(cycloproylmethoxy)benzyl)-4,6-diazaspiro[2.4]heptan-5-one]
The pIC50 of the first is higher: over 8.52 for the first, 7.52 to 8.52 for the second. The first is the more potent here.
